Measured values from patent US5808087A, “Sulfonium salts of pyrrolylbenzimidazoles” (priority 1995, dated 1998).
Converted amounts (≈) assume the structure as drawn.

What was measured:
Mouse B16 melanoma cells = assay: In vitro tumor cell growth suppressing activity (Test Example 1); type: cell-based; settings: 37° C., 3 days
Protocol: Antitumor activity of the above-mentioned compounds was tested as follows. Mouse B16 melanoma cells were plated on a 96-well culture plate, test compounds were added to the cells one day after, and then the plate was incubated at 37° C. for 3 days under a 5%-CO2 atmosphere. According to the method described in Cancer Res. 48, 589-601, 1988, the concentrations of compounds required to inhibit cell growth by 50% were obtained. The activity is expressed by the concentrations (micrograms/milliliter). The result with distamycin is also shown for comparison.

[1] = test system: Colon 26 mouse colon cancer cells; assay: In vivo antitumor activity, subcutaneously implanted Colon 26 (Test Example 2); set-up: species or system mouse (female CDF1 mice); settings: Colon 26 s.c. in CDF1 mice, i.v. on day 1, tumors weighed day 15; for 50% T/C: 21600 min
Protocol: A cell suspension of Colon 26 mouse colon cancer cells (1×10^7 cells/ml) in HBSS (Hanks' Balanced Salt Solution) was prepared. This cell suspension (0.1 ml each) was implanted subcutaneously into the lateral region of female CDF1 mice (day 0). One day after the tumor cell injection (day 1), the body weight of the mice was measured, and then solutions of test compounds (5% glucose solutions containing 5% Tween 80) were injected intravenously into the tails of the mice. On day 15, the resulting tumors were taken out and weighed.
Percent average weights of tumors of animals in the test groups, in which the compounds were injected, with respect to those in the control group, in which no compounds were injected, were calculated and given as T/C values.

[2] = Stability of compounds (1), remaining rate by HPLC after 3 days (Test Example 3); type: physicochemical
Protocol: In order to compare stabilities of the compounds, remaining rates of compounds were obtained by incubating the compounds at about 4° C. and 50° C. for 3 days and measuring comparative peak areas on HPLC (Table 4).

[3] = Stability of compounds (2), remaining rate by HPLC after one month at 60° C. (Test Example 4); type: physicochemical
Protocol: Stability of these compounds was investigated. As an index of stability, remaining rates of compounds were obtained by measuring remaining compounds after heating at 60° C. for one month. The remaining rates were measured by HPLC.

Compound `Cn1cc(NC(=O)c2cc(NC(=O)c3cc(NC=O)cn3C)cn2C)cc1C(=O)NCCC(=N)N` [Distamycin, distamycin, reference compound] has an IC50 (Mouse B16 melanoma cells; Mus musculus, 72 h, read-out: 50% Suppressing Concentration) of 36 µg/mL (≈ 74.8 µM).
In the case of `Cn1cc(NC(=O)CC[S+](C)C)cc1-c1nc2cc(C(=O)Nc3ccc(N(CCCl)CCCl)cc3)ccc2[nH]1` [1*^1], the “50% Suppressing Concentration” value (Mouse B16 melanoma cells) is reported as 0.71 µg/mL, the “50% T/C” value [1] is reported as 7.19 mg/kg and the remaining at 72 h ([2]; 50° C.) is reported as 100%. For the same compound, the remaining at 730 h [3] was 96.7%.
Work on `Cn1cc(NC(=O)CC[S+](C)C)cc1-c1nc2cc(C(=O)Nc3ccc(N(CCCl)CCCl)cc3)ccc2[nH]1` [IODIDE] yielded a remaining at 72 h ([2]; 4° C.) of 99% and a Remaining rate ([2]; 50° C., 4320 min) of 83%.
For `Cn1cc(NC(=O)CC[S+](C)C)cc1-c1nc2cc(C(=O)Nc3ccc(N(CCCl)CCCl)cc3)ccc2[nH]1` [25*^2], the “50% Suppressing Concentration” value (Mouse B16 melanoma cells) was 0.99 µg/mL, the “50% T/C” value [1] was 9.35 mg/kg and the Remaining rate ([3]; 43800 min) was 99.4%.
Work on `COc1cccc2c1C(=O)c1c(O)c3c(c(O)c1C2=O)C[C@@](O)(C(=O)CO)C[C@@H]3O[C@H]1C[C@H](N)[C@H](O)[C@H](C)O1` [Adriamycin, adriamycin, reference compound] yielded an ED50 ([1]; Mus musculus, iv, 360 h, read-out: 50% T/C) of 12.4 mg/kg.
